Experimental data from US20110077230A1, “COPPER ORGANOCOMPLEXES, USE THEREOF AS ANTITUMOR MEANS AND FOR PROTECTING HEALTHY TISSUE FROM IONIZING RADIATION” (CHARITE - UNIVERSITATSMEDIZIN BERLIN, priority 2008, published 2011).

Key:
[1] = tested on: neutrophils; experiment: Antioxidant properties: ROS formation in neutrophils; type: cell-based, male mice of the NMRI line; conditions: triggered by PMA and fMLF, depending on the dosage
Description: The complexes A and C show a pronounced effect as antioxidant in an environment having an excess of reactive oxygen species (ROS). Thus, ROS formation in neutrophils obtained from male mice of the NMRI line was triggered by two activators: phorbol 12-myristate 13-acetate (PMA) and N-formyl-methionyl-leucylphenylalanine (fMLF).

[2] = tested on: human mammary gland tumor cells, T4N2M0 stage; experiment: In vitro effect on human mammary gland tumor cells, Experiment 2; type: cell-based
Experimental: (§1) Tumor cells were collected from the surgical material of female patients suffering from mammary carcinoma at two different stages. The tumor tissue was added with sterile 0.25% trypsin solution and centrifuged repeatedly in RPMI-1640 nutrient medium for 15 minutes at 1500 revolutions per minute. The amount of resulting cells was counted and the suspension of tumor cells divided into five equal groups. The RPMI-1640 nutrient medium was added with 12% fetal calf serum. The cells were incubated for 48 h at 37° C. in a 5% CO2 stream.
(§2) The preparations were dissolved in 4% DMSO and physiological saline and acidified with HCl.
(§3) Two experiments were performed using cancer cells derived from tumors of different stages. To differentiate the various stages of cancer, the TNM classification is used internationally which takes into account the tumor size (T), lymph node affection (N=nodal status) and the extent of metastasis (M).
(T3: large tumor spreading into the tissue surrounding the breast; N2: metastases up to 9 axillary lymph nodes, M0: no distant metastases). A suspension including 40 million cells was added with 50 μl of each preparation.
(§4) The 5 groups with cancer cells received the following:
(§5) After subjecting the preparations to flow incubation for 60 minutes, trypan blue stained cells were produced, and dead cells and apoptosis could be determined; dead cells and apoptotic cells were determined in specific units of time and morphological findings.

[3] = tested on: Ehrlich ascites adenocarcinoma; experiment: Ehrlich ascites adenocarcinoma in mice; type: in vivo, white mice
Experimental: The tumor was implanted intraabdominally in white mice of no particular race.
Group I received complex A orally as a suspension in olive oil at a dosage of 10 mg/kg 3, 4, 5, 6, 7, 8, 9 and 10 days after tumor implantation.
Group II received the same treatment, but using sarcolysine instead of complex A.
Group III received no treatment.
The animals were sacrificed and examined on the 11th day after tumor implantation.

[4] = tested on: colon adenocarcinoma tumor (AKATOL); experiment: Transplanted colon adenocarcinoma (AKATOL), peroral administration; type: in vivo, mice of the BALB line; conditions: 10 mg/kg peroral in olive oil
Experimental: Tumor cells were transplanted in mice of the BALB line by injection into the thighs. 3 of 4 groups received the respective preparation on the peroral route 3, 4, 5, 6, 7, 8, 9 and 10 days after tumor implantation.
Group I: 10 mg/kg complex A suspended in olive oil.
Group II: 5 mg/kg complex A suspended in olive oil.
Group III: 10 mg/kg sarcolysine suspended in olive oil.
On day 21 of the experiment the animals were sacrificed and examined.

[5] = tested on: melanoma B 16; experiment: B 16 melanoma in mice, intraabdominal administration; type: in vivo, mice of the line C 57Bl; conditions: 5 mg/kg intraabdominally
Experimental: The melanoma B 16 was implanted in 20 mice of the line C 57Bl by subcutaneous injection into the right thigh. The animals were divided into four groups of five mice each. Group I received complex A at a dosage of 7 mg/kg, dissolved in DMSO, which was administered intraabdominally in a 4% suspension in physiological saline. Each administration was performed 3, 5, 7 and 9 days after trans-plantation of the tumor.
Group II was treated as group I, but using a dosage of 5 mg/kg.
Group III was treated as group I, but received 5 mg/kg of melphalan hydrochloride instead of complex A.
Group IV remained untreated.

[6] = tested on: human mammary gland tumor cells, T2N1M0 stage; experiment: In vitro effect on human mammary gland tumor cells, Experiment 1; type: cell-based
Experimental: as §1, §2, §3
(T2: tumor up to 5 cm; N1; metastases in 3 lymph nodes; M0: no distant metastases). A suspension including 40 million cells was added with 50 μl of each preparation.
as §4, §5

O=c1[nH]c(=O)n(C2CCCO2)cc1F (stereo not shown) [tegafur, N-(2-furanidil)-5-fluorouracil, reference compound]
formation of ROS in neutrophils [1]: hardly achieved

NC(Cc1ccc(N(CCCl)CCCl)cc1)C(=O)O (racemic) [sarcolysine, 4-[bis(2-chloroethyl)amino]-D,L-phenylalanine, reference compound]
Living cells, % ([2]; Experiment 2, T4N2M0): 51.0 ± 2.23%
Dead cells, % ([2]; Experiment 2, T4N2M0, 40 million cells, 50 μl of preparation): 49.0 ± 2.23%
% inhibition ([3]; 10 mg/kg orally): 47.4%
Average MI of bone marrow ([3]; 10 mg/kg orally): 0.52 ± 0.26 ‰
Average MI of tumor cells ([3]; 10 mg/kg orally): 2.0 ± 1.87 ‰
Average number of tumor cells ([3]; 10 mg/kg orally in olive oil, days 3 to 10, day 11): 77 10^6
% inhibition [4]: 43%
Average weight of tumor ([4]; days 3 to 10, day 21): 1.85 g
Apoptotic index AI [5]: 3.07 ‰
Bone marrow index MI BM [5]: 1.88 ‰
Inhibition of tumor growth, mass percent [5]: mass percent 62.87%
Inhibition of tumor growth, volume percent [5]: volume percent 35.78%
Mitotic index of tumor cells MI [5]: 2.43 ‰
Average volume of tumor ([5]; days 3, 5, 7, 9): 1.4 cm^3
Average weight of tumor ([5]; days 3, 5, 7, 9): 482.6 mg
Living cells, % ([6]; Experiment 1, T2N1M0): 54.0 ± 2.22%
Dead cells, % ([6]; Experiment 1, T2N1M0, 40 million cells, 50 μl of preparation): 46.0 ± 2.22%
formation of ROS in neutrophils [1]: hardly achieved
